Data from patent US20180228861A1, “COMPOSITION FOR TREATING DIABETES AND DYSLIPIDEMIA OBTAINED FROM THE EXTRACT OF COSTUS PICTUS D.DON PLANT AND A METHOD OF PREPARING THE SAME” (ARJUNA NATURAL EXTRACTS, LTD., priority 2012, published 2018).

Key:
Format in all cases: in vivo
Settings in all cases: extracts 40 mg/kg orally, glibenclamide 3 mg/kg orally
[1] = tested on: streptozotocin-induced Type 1 diabetic model in Wistar rats; assay: Blood glucose level in streptozotocin-induced Type 1 diabetic model
Procedure: Evaluation of effect of different fractions of fresh leaves of Costus pictus D. Donon streptozotocin-induced Type 1 diabetic model in Wistar rats.
(§1) The study was conducted in adult male Wistar rats weighing 200-250 gm for a period of 40 days (30 days of treatment and 10 days of induction). The animals were randomly divided into seven groups comprising six each. Diabetes was induced in all the groups except the normal control group by the intra peritoneal administration of streptozotocin at 50 mg/kg. After the induction of diabetes, one group was kept as diabetic untreated control and a positive control was maintained in which the animals were treated with standard drug, glibenclamide at 3 mg/kg orally. […] The effect of the different fractions was assessed by measuring the fasting blood glucose level, post prandial blood glucose level, serum insulin levels and glycosylated Hb. The anti hyperlipidemic effect was assessed by the estimation of total cholesterol, triglyceride, LDL cholesterol, HDL cholesterol, VLDL, muscle glycogen and liver glycogen. The antioxidant effects of the different extracts were assessed by the measuring TBARS, superoxide dismutase (SOD), catalase, reduced glutathione (GSH) and glutathione peroxidase levels (GPx). TBARS was determined by TBA assay (Ohkawa et al., 1979), SOD was measured using the nitroblue tetrazolium reduction method (Kakkar et al., 1984), Catalase was assayed using the method described by Aebi (1974). GPx was measured as described by Flohe and Gunzler (1984), GSH was measured as per the method of Jollow et al., (1974). Histopathological examination of pancreas was conducted to assess the antidiabetic effect of the different fractions of Costus pictus D. Don.
Group 3—Positive control—diabetic animals treated with glibenclamide at 3 mg/kg orally.
Group 4—diabetic animals treated with methanolic extract of fresh leaves of Costus pictus D. Don, the extract has low oxalic acid and/or oxalates content (Sample 2 prepared as per Example 1) at 40 mg/kg orally. […]

[2] = tested on: streptozotocin-induced Type 1 diabetic model in Wistar rats; assay: Antioxidant enzymes and TBARS in streptozotocin-induced diabetic rats
Procedure: as §1, with “mg/kg.” for “mg/kg. After the induction of diabetes, one group was kept as diabetic untreated control and a positive control was maintained in which the animals were treated with standard drug, glibenclamide at 3 mg/kg orally.”

[3] = tested on: streptozotocin-induced Type 1 diabetic model in Wistar rats; assay: Insulin and glycosylated Hb levels in streptozotocin-induced diabetic rats
Procedure: as §1, with “mg/kg.” for “mg/kg. After the induction of diabetes, one group was kept as diabetic untreated control and a positive control was maintained in which the animals were treated with standard drug, glibenclamide at 3 mg/kg orally.”

COc1ccc(Cl)cc1C(=O)NCCc1ccc(S(=O)(=O)NC(=O)NC2CCCCC2)cc1 [glibenclamide]
blood glucose levels, 0th day ([1]; 0th day): 321 mg/dL
blood glucose levels, 15th day ([1]; 15th day): 126 mg/dL
blood glucose levels, 30th day ([1]; 30th day): 71 mg/dL
Catalase [2]: 59.36 nM H2O2 decomposed/s/g
GPx [2]: 7.54 U/mg of protein
GSH [2]: 38.12 mg/100 g
SOD [2]: 2.96 U/mg protein
TBARS [2]: 0.80 mM MDA/100 g
Glycosylated Hb [3]: 0.5 % total Hb
Insulin level [3]: 13 μU/ml
